# Data reported in ChEMBL document CHEMBL3243946, “A comparison of the antiserotonin, antihistamine, and anticholinergic activity of cyproheptadine with analogues having furan nuclei fused to the 10,11-vinylene bridge” (1977).
# Calls of active or inactive are those of the source. The rule behind the calls is not given here.
# Tests used:
# [1] = tested on: Cavia porcellus; assay: Antihistamine activity in Duncan-Hartley guinea pig assessed as protection of animal from death caused by histamine aerosol-induced bronchoconstriction at 12.5 mg/kg, ip; format: functional, organism-based; set-up: dose 12.5 mg/kg
# [2] = tested on: Mus musculus; assay: Anticholinergic activity in Carworth CF1 mouse assessed as dose required to produce pupil dilation to 1.5 micrometer units in 50% mouse at 324 mg/kg, ip; format: functional, organism-based; set-up: dose 324 mg/kg
# [3] = tested on: Rattus norvegicus; assay: Antiserotonin activity in Sprague-Dawley rat assessed as inhibition of feet weight gain at 10 mg/kg, sc after 30 mins; format: functional, organism-based; set-up: dose 10 mg/kg
# [4] = species: Cavia porcellus; assay: animal or person; format: functional; details: Duncan-Hartley, ip
# Description: Antihistamine activity in ip dosed Duncan-Hartley guinea pig assessed as protection of animal from death caused by histamine aerosol-induced bronchoconstriction
# [5] = tested on: Mus musculus; assay: Anticholinergic activity in ip dosed Carworth CF1 mouse assessed as dose required to produce pupil dilation to 1.5 micrometer units in 50% mouse; format: functional
# [6] = tested on: Rattus norvegicus; assay: Antiserotonin activity in sc dosed Sprague-Dawley rat assessed as inhibition of feet weight gain after 30 mins; details: 0.5 h
# [7] = tested on: Mus musculus; assay: Anticholinergic activity in ip dosed Carworth CF1 mouse assessed as pupil dilation to 15 micrometer units in 100% mouse; format: functional
Structure (SMILES),inhibition [1],inhibition [2],inhibition [3],ED50 [4] [mg/kg],ED [5] [mg/kg],ED50 [6] [mg/kg],ED [7] [mg/kg]
CN1CCC(=C2c3ccccc3C3COCC3c3ccccc32)CC1 (stereo not drawn),inactive,inactive,inactive,,,,
CN1CCC(=C2c3ccccc3C(CO)=C(CO)c3ccccc32)CC1,,,inactive,12.5,4,,
CN1CCC(=C2c3ccccc3C=Cc3ccccc32)CC1.Cl [CYPROHEPTADINE HYDROCHLORIDE],,,,0.05,4,0.02,
CN1CCC(=C2c3ccccc3C3=C(c4ccccc42)C2(C)C=CC3O2)CC1 (stereo not drawn),inactive,inactive,inactive,,,,
Cc1occ2c1-c1ccccc1C(=C1CCN(C)CC1)c1ccccc1-2,inactive,,inactive,,4,,
c1ccc2c(c1)C(=C1CCNCC1)c1ccccc1-c1cocc1-2,inactive,inactive,inactive,,,,
CN1CCC(=C2c3ccccc3C3=C(C(=O)OC3)c3ccccc32)CC1.O=C(O)C(=O)O,,,inactive,9.7,,,<4
CN1CCC(=C2c3ccccc3C3=C(c4ccccc42)C2C=CC3O2)CC1,inactive,inactive,inactive,,,,
CN1CCC(=C2c3ccccc3C3=C(c4ccccc42)C2CCC3O2)CC1,inactive,inactive,inactive,,,,
C1=CC2OC1C1=C2c2ccccc2C(=C2CCNCC2)c2ccccc21,inactive,inactive,inactive,,,,
CN1CCC(=C2c3ccccc3-c3cocc3-c3ccccc32)CC1,inactive,,inactive,,36,,
